Experimental data taken from patent US7538193B2, “NO-modified hemoglobins and uses therefor” (Duke University, priority 1995, dated 2009).

Key:
[1] = system: substantia nigra, caudate putamen nucleus and parietal cortex of Sprague-Dawley rats; test: O2-dependent local cerebral blood flow in rats (Example 25); assay type: in vivo, rat; settings: 1 μmol/kg infused over 3 minutes
Procedure: Adult male Sprague-Dawley rats (290-350 g) were anesthetized with sodium pentobarbital (50 mg/kg IP), intubated and ventilated with a small animal respirator (Edco Scientific Inc., Chapel Hill, N.C.) at a rate and tidal volume to maintain normal values of PaCO2 (35-45 mm Hg; PaCO2=systemic arterial blood carbon dioxide tension). The femoral vein and artery were cannulated for infusion of drugs and for continuous monitoring of systemic blood pressure, respectively. Aliquots of arterial blood (200 μl) were drawn periodically to measure blood gas tensions and pH (Instrumentation Laboratory Co., model 1304 blood gas/pH analyzer). The blood was replaced intravenously with three volumes of normal saline. The inspired O2 concentration was varied using premixed gases balanced with nitrogen. The tissue PO2 was measured continuously with polarographic platinum microelectrodes (50 μm O.D. coated with hydrophobic gas permeable Nafion) implanted stereotaxically in both the right and left hippocampus (AP-3.4 mm, ML+2.2 mm), caudate putamen nucleus and substantia nigra (see coordinates below) (Young, W., Stroke, 11:552-564 (1980); Heiss, W. D. and Traupett, H., Stroke, 12:161-167 (1981); Dewhirst, M. W. et al., Cancer Res., 54:3333-3336 (1994); Kerger, H. et al., Am. J. Physiol., 268:H802-H810 (1995)). The PO2 electrodes were polarized to −0.65V against a distant Ag/AgCl reference located on the tail and the current flow was measured using a low-impedance nA-meter. Regional arterial PO2 was adjusted by changing the inspired O2 concentration and atmospheric pressure.
Polarographic hydrogen (H2)-sensitive microelectrodes were implanted stereotaxically in the substantia nigra (AP −5.3 mm, ML −2.4 mm to the bregma, depth 3.2 mm), caudate putamen nucleus (CPN) (AP +0.8 mm, ML −2.5 mm, depth 5.2 mm) and parietal cortex, for measurement of regional blood flow (Young, W., Stroke, 11:552-564 (1980); Heiss, W. D. and Traupett, H., Stroke, 12:161-167 (1981)). The microelectrodes were made from platinum wire and insulated with epoxy, with the exception of the tip (1 mm) which was coated with Nafion. For placement, the electrodes were mounted on a micromanipulator and the rat's head was immobilized in a Kopf stereotaxic frame. H2-sensitive electrodes were polarized to +400 mV against a distant reference electrode on the tail, and the polarographic current was measured using a low-impedance nA meter during and after the inhalation of hydrogen gas (2.5%) for 1 min. Both the hydrogen clearance curves and voltage for oxygen measurements were made using PC WINDAQ (software, DI-200 AC, Dataq Instruments, Inc., Akron, Ohio). Cerebral blood flow was calculated using the initial slope method (Young, W., Stroke, 11:552-564 (1980); Heiss, W. D. and Traupett, H., Stroke, 12:161-167 (1981)). Regional blood flow responses were monitored for 30 min. prior to and 30 min. following drug administration; hemoglobins were given at time 0.
The cerebrovascular effects of SNO-Hb were measured in adult male Sprague-Dawley rats using O2 and H2 (blood flow)-sensitive microelectrodes that were placed stereotaxically in several regions of the brain as for Example 24.

[2] = system: rabbit thoracic aortic rings, endothelium removed; test: Oxygen-dependent vessel ring bioassay (Examples 22, 23); assay type: cell-based
[3] = system: rat brain (caudatoputamen nucleus); test: Brain blood flow in rats by H2 clearance (Example 12); assay type: in vivo; settings: rats breathing 21% O2; 100 or 1000 nmol/kg
Procedure: SNO-Hb(FeII)O2, having a SNO/Hb ratio of 2, was prepared (from HbA0) by reaction with S-nitrosothiol. Rats breathing 21% O2 were injected (time 0) with Hbs prepared from HbA0 as indicated in FIG. 10 (open circles, SNO-Hb (100 nmol/kg); filled circles, SNO-Hb (1000 nmol/kg); filled squares, unmodified Hb (1000 nmol/kg)). Three rats were used per experiment. Blood flow was measured in brain using the H2 clearance method; microelectrodes were placed in the brain stereotactically. […] NO group release is promoted by local tissue hypoxia.

[4] = system: rabbit thoracic aorta rings; test: Rabbit aortic ring bioassay: vessel tone and ACh (EDRF)-mediated relaxation; assay type: cell-based; settings: 1 μM addition; ACh-mediated relaxation of rabbit aortic ring
Source text: The effects of native Hb on EDRF responses were compared with Hb preparations in which the thiol or heme centers had been blocked by alkylation or cyanmet derivitization, respectively. All preparations of Hb elicited contractions; however, those of native Hb (in which both SH and metal centers are free for interaction) were most pronounced. […] Relaxations were inhibited to lesser degrees by cyanmet Hb (CN-Hb) (in which hemes were blocked from reaction) and NEM-Hb (in which thiol groups were alkylated by N-ethylmaleimide). […] Direct measurement of SNO-Hb, formed from EDRF under similar conditions, is described in Example 8.
Descending rabbit thoracic aorta were cut into 3 mm rings and mounted on stirrups attached to force transducers (model FT03, Grass Instruments, Quincy, Mass.) for measurement of isometric tone. The details of this bioassay system have been previously described (Stamler, J. S., et al., Proc. Natl. Acad. Sci. USA, 89:444-448 (1992)). Cyanmet Hb was prepared from human HbA according to published protocols (Kilbourn, R. G. et al. Biochem. Biophys. Res. Comm., 199:155-162, (1994)). Alkylation of HbA with N-ethylmaleimide was followed by desalting across G-25 Sephadex to remove excess NEM. Removal of unmodified Hbcysβ93 was achieved by passage through Hg-containing affinity columns. The alkylation of free SH groups was verified using 5,5′-dithio-bis[2-nitrobenzoic acid].

For “Hb: native, underivatized human hemoglobin A purified from red cells”, the “local cerebral blood flow” value ([1]; 21% O2) was “decreased local blood flow”, the “local cerebral blood flow” value ([1]; 100% O2 + 3 ATA) was “tended to decrease cerebral flow to similar extents” and the “local cerebral blood flow” value ([1]; 100% O2) was “preserved”. For the same substance, the “effect on vessel tone” value ([2]; 1 μM, rings contracted with phenylephrine under hypoxic conditions (6-7 torr)) was “progressive increases in vessel tone”, the “effect of 10 μM glutathione on the response” value ([2]; 10 μM glutathione in bioassay chambers) was “no effect” and the “effect on vessel tension” value ([2]; 95% O2 or 21% O2 (R-structure)) was “contract blood vessels”. The “effect on vessel tension” value ([2]; <1% O2 (~6 torr), T-structure) was “strongly contracts blood vessels”, the “blood flow to the brain” value [3] was “decreases blood flow” and the “% ACh RELAXATION” value [4] was 31.9 ± 6.9 (n = 7) %.
